Measured values taken from patent publication US10724028B2, “Ligand-binding fiber and cell culture substrate using said fiber” (NISSAN CHEMICAL INDUSTRIES, LTD., priority 2014, dated 2020).

Tested on: TPO-dependent human megakaryoblastic leukemia cell line (UT-7/TPO)
Test: Cell culture evaluation: UT-7/TPO cell number count using WST-8 after 6 days of culture on the substrate
Format: cell-based
Description: The ligand-bonded fiber 1 of Example 1 and the fiber of Comparative Example 1 were subjected to cell culture evaluation. As a control for the evaluation, a system in which PSt substrate was configured (positive control: thrombopoietin (TPO) (10 ng/mL) was added to medium, negative control: medium alone) was used. In the following, the CO2 concentration (%) of the CO2 incubator is shown by % by volume of CO2 in the atmosphere.
As the cell, TPO-dependent human megakaryoblastic leukemia cell line (UT-7/TPO; Komatsu et. al., Blood, 1996, 87, pp. 4552-4560) was used. For cell culture, IMDM (Iscove's Modified Dulbecco's Medium) medium (manufactured by Sigma-Aldrich) containing 10% (v/v) FBS and 10 ng/mL TPO (Thrombopoietin, manufactured by PeproTech) was used. The cells were cultured for not less than 2 days in a CO2 incubator at 37° C. while keeping 5% carbon dioxide concentration. The obtained culture medium was centrifuged (manufactured by TOMY SEIKO Co., Ltd., LC-200, 1500 rpm/3 min, room temperature), the supernatant was removed, the above-mentioned IMDM medium free of TPO was added to prepare a cell suspension. The “FBS” here means fetal bovine serum (manufactured by Biological Industries).
The ligand-bonded fiber of Example 1, the fiber of Comparative Example 1, and PSt substrate (for positive control and negative control) were configured in 6 well flat-bottom microplates (manufactured by AS ONE Corporation). […]
After 6 days of cell culture, the cell culture medium was recovered from respective wells in which the ligand-bonded fibers 1-3 of Examples 1-3, the fiber of Comparative Example 1, the substrate of Comparative Example 2, and PSt substrates for positive control and negative control were configured. […] After standing in a CO2 incubator at 37° C. for 120 min, the absorbance at 450 nm was measured by an absorption spectrometer (manufactured by Molecular Devices, SpectraMax). […]
After 6 days of culture, the cell number was counted in the same manner as above by using WST-8. […]

thrombopoietin [positive control]
100%: cell number (%) cell culture, first time (Table 3, UT-7/TPO, 6 days culture, positive control (TPO 10 ng/mL) as 100%) | cell number (%) cell culture, third time (Table 3, same substrate reused a third time, fresh UT-7/TPO cells, 6 days, positive control as 100%) | cell number (%) cell culture, second time (Table 3, same substrate reused after PBS wash, fresh UT-7/TPO cells, 6 days, positive control as 100%)
